Measured values: patent publication US20140303109A1 (priority 2010, published 2014)

Experiments:
[1] = test system: NF-κB DNA binding activity; assay: EMSA for NF-κB DNA binding activity, MIA PaCa-2; format: cell-based, human; details: CUR 4 μM, CDF 2 μM
[2] = oral 1 g/kg body wt., mouse; cited from earlier work
[3] = test system: AsPC-1, AsPC1-GTR, MIAPaCa-2, and MIAPaCa-2-GTR cell lines; assay: MTT cell survival and combination index, four PC lines; format: cell-based, human; details: 72 h, 4 μMol/L
From the text: Untreated control has been assigned a value of 100%. The p value shown represents comparisons between a single agent t and their combinations by using a paired t-test. A combination Index (CI)<1 for the CDF and GEM combination indicates synergism. The results are shown on FIGS. 17A to 17D.

[4] = test system: pancreatospheres of AsPC-1, AsPC1-GTR, MIAPaCa-2, and MIAPaCa-2-GTR cells; assay: Sphere disintegration assay; format: cell-based, human; details: 5 days treatment of 10-day spheres
From the text: After allowing 10 days to generate the formation of pancreatospheres, the cells were subjected to the treating agent for 5 days.

[5] = test system: BxPC-3 pancreatic cancer cells; assay: MTT assay, BxPC-3 cell growth, 72 h; format: cell-based, human; details: various concentrations
Protocol: The concentrations were 10 μM, 20 μM, and 30 μM. After aspiration of growth medium, (3-(4,5-Dimethylthiazol-2-yl)-2,5-diphenyltetrazolium bromide (MTT; 1 mg/ml) was added to the cell cultures, followed by incubation for 3 hours at 37° C. After the cells were crystallized, the MTT was removed and dimethylsulfoxide (DMSO) was added to dissolve the metabolized MTT product. The absorbance was then measured on a Wallac Victor^3 1420 Multi-label counter at 540 nm.
The results are shown on FIG. 5 which is a series of four bar graphs, labeled FIG. 5A through FIG. 5D.

COX-2, PTEN expression = assay: Western blot of COX-2 and PTEN in tumor remnants; format: in vivo, mice; details: MIAPaCa-2 tumors
Protocol: COX-2, PTEN, and β-actin expression was determined by Western blot.

miR-21 = assay: Real-time RT-PCR of miR-21 in PC cell lines; format: cell-based, human; details: 72 h; BxPC-3, MIAPaCa-E, MIAPaCa-M
Protocol: The expression of miRNAs (miRNA-200a, miR-200b, and miR-21) in all three pancreatic cancer cell lines, was measured with a TaqMan MicroRNA Assay kit (Applied Biosystems, Carlsbad, Calif.) following the manufacturer's protocol. […] Total RNA was extracted, and 5 ng of each sample were reverse-transcribed in a method described by Li, et al., Cancer Res., Vol. 69, pages 6704-6712 (2009). Real-time RT-PCR reactions were then carried out in a total volume of 25 μl reaction mixture, as described by Li, et al., id., using Smart Cycler II (Cepheid, Sunnyvale, Calif.). The data were analyzed using Ct method and were normalized by RNU6B expression in each sample.

[6] = test system: 5-FU+Ox-resistant cancer cells; details: alone or with 5-FU+Ox or FOLFOX; cited from earlier work
[7] = test system: pancreatospheres of AsPC-1 cells; assay: Sphere formation assay; format: cell-based, human; details: AsPC-1, varying concentrations
Protocol: A sphere formation assay was conducted for 1 week (FIG. 19A) and four weeks (FIG. 19B) to examine the effect of the treating agents on the CSC self-renewal capacity of the PC cell line AsPC-1. […] Therefore, it appears that CDF may cause pancreatospheres to be more sensitive to GEM, and as a result, CDF, or the combination of CDF/GEM, would be useful for targeted killing of CSCs.
Furthermore, pretreatment with CDF improved the outcome.

[8] = test system: pancreatosphere-derived tumor cells; assay: Pancreatosphere formation by pancreatosphere-derived tumor cells; format: cell-based; details: cells harvested from pancreatosphere-derived tumors
From the text: Pancreatospheres (5,000) derived from MIAPaCa-2 cells were isolated and implanted in mice with 1:1 matrigel. […] RNA was extracted from the tumor tissue and assayed.
The animal was euthanized after 30 days because of tumor burden and photographed.

SMILES	NF-κB DNA binding activity [1]	Cmax [2] [ng/mL]	cell survival [3]	disintegration of pancreatospheres [4]	cell growth inhibition [5]	expression of PTEN in tumor remnants (COX-2, PTEN expression)	expression of miR-21 (miR-21)	reducing and/or reversing chemoresistant colon cancer cells [6]	2nd passage of pancreatospheres [7]	formation of new pancreatospheres [8]
COc1cc(/C=C/C(=O)CC(=O)/C=C/c2ccc(O)c(OC)c2)ccc1O [CUR, (1E,6E)-1,7-bis(4-hydroxy-3-methoxyphenyl)hepta-1,6-diene-3,5-dione, reference compound]	down-regulation of NF-κB	220								
COc1cc(/C=C/C(=O)C(=Cc2ccc(F)c(F)c2)C(=O)/C=C/c2ccc(O)c(OC)c2)ccc1O [CDF, (1E,6E)-1,7-bis(4-hydroxy-3-methoxyphenyl)hepta-1,6-diene{4(3,4 difluorobenzaldehyde)}-3,5-dione]			much more significant reduction of cell survival in PC cells than GEM, CUR, or their combination	remarkably increased disintegration of pancreatospheres	superior to CUR in inducing cell growth inhibition	up-regulated	significant reduction in the expression of miR-21	superior to naturally-occurring CUR	inhibited 2nd passage of pancreatospheres in a dose-dependent manner	significant inhibition in the formation of new pancreatospheres
